Laboratory results reported in patent US10065963B2 (Incyte Corporation, priority 2015, dated 2018).
Where a name gives a salt, the structure may show the parent alone.

Columns and labels:
[1] = target: PI3Kδ (p110δ/p85α) Recombinant Human Protein (Homo sapiens (Human), UniProt O00329); assay: PI3Kδ scintillation proximity assay; type: biochemical
[2] = target: PI3Kγ (p110γ) Recombinant Human Protein (Homo sapiens (Human), UniProt P48736); assay: PI3K-γ scintillation proximity assay; type: biochemical; details: 2 μM ATP, 20 μM PIP2
PI3Kγ (p110γ) Recombinant Human Protein, sequence (P48736 whole entry): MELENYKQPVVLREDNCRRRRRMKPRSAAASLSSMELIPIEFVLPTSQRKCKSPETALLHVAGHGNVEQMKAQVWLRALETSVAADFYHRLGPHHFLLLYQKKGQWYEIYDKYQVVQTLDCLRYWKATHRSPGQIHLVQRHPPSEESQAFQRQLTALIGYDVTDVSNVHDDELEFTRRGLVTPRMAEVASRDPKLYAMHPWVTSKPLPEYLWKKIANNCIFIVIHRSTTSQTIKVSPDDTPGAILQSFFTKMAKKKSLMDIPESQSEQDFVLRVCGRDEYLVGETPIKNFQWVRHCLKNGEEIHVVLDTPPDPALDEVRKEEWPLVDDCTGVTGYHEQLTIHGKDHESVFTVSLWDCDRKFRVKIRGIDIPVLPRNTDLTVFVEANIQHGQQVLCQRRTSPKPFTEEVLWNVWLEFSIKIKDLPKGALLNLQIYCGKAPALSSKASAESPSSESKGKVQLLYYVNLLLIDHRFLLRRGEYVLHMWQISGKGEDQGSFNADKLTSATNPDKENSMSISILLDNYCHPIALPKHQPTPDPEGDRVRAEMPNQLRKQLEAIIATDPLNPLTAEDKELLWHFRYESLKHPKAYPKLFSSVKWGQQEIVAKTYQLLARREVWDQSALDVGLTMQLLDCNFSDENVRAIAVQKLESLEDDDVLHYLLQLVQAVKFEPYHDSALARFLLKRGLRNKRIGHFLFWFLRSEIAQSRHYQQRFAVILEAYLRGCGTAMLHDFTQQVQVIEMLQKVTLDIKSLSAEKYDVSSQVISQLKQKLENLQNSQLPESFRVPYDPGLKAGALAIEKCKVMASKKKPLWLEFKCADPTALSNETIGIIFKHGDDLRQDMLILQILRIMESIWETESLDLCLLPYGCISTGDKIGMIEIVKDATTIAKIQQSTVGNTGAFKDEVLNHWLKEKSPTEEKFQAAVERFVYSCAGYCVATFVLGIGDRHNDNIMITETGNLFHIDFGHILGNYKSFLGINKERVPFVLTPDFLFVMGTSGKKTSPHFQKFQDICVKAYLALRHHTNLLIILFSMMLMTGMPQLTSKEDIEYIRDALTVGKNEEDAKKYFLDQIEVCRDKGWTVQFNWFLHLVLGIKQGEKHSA

PI3Kδ (p110δ/p85α) Recombinant Human Protein, sequence (O00329 whole entry): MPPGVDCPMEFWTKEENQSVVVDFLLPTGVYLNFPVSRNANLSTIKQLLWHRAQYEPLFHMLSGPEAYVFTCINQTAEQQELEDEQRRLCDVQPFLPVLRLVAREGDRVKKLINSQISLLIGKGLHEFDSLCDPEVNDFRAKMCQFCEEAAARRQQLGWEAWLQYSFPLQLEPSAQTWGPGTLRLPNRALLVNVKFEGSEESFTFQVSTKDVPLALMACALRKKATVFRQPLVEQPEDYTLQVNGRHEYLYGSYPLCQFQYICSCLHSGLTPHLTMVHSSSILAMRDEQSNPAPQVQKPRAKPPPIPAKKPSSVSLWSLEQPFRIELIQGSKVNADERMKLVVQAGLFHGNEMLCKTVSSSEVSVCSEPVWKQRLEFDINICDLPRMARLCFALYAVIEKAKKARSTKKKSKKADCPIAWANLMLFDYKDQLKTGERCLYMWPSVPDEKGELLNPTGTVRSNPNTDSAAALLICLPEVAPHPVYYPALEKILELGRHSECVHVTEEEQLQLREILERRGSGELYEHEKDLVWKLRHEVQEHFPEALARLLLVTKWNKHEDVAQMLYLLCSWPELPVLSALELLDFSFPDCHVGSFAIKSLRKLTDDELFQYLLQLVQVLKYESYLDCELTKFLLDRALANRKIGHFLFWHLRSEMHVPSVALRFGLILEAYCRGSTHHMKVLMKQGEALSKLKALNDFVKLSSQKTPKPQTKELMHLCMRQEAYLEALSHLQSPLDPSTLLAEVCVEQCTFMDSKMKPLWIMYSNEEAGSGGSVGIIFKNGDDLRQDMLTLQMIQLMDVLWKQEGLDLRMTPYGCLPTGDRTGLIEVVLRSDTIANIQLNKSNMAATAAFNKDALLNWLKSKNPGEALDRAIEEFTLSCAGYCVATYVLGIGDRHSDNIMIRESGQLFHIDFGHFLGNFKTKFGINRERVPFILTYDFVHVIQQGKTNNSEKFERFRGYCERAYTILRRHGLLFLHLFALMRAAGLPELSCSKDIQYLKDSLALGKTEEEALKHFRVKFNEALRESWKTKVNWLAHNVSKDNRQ
PI3Kδ (p110δ/p85α) Recombinant Human Protein, sequence (P27986 whole entry partner): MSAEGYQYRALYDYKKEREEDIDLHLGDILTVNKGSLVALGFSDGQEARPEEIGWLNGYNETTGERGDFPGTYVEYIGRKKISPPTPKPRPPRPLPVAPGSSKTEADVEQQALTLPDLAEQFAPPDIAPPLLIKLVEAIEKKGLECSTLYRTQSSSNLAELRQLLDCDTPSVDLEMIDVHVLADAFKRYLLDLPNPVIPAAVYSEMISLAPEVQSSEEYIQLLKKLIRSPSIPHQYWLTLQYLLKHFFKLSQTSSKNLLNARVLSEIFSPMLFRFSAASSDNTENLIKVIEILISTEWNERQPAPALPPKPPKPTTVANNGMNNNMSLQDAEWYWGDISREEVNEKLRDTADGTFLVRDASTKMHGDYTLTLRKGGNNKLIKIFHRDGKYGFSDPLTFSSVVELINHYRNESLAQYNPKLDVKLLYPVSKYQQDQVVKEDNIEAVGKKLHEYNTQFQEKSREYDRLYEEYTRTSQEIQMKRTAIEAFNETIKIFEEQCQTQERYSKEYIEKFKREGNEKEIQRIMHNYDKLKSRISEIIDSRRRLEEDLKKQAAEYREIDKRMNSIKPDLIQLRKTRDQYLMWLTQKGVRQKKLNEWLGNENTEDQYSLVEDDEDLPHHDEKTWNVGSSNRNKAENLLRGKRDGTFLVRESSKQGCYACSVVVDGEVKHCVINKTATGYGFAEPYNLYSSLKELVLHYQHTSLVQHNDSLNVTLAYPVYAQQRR

Row | IC50 ([1]; 2 μM ATP, 20 μM PIP2) [nM] | IC50 [2] [nM] | IC50 ([1]; Table B, Assay C) [nM] | SMILES
1 | – | – | 50 to 200 | CCOc1c(C(C)n2nc(C)c3c(N)ncnc32)cc(Cl)c(F)c1C1CNC(=O)C1 (single isomer, unassigned) [Example 32a, 4-{3-[1-(4-amino-3-methyl-1H-pyrazolo[3,4-d]pyrimidin-1-yl)ethyl]-5-chloro-2-ethoxy-6-fluorophenyl}pyrrolidin-2-one, reference compound]
2 | – | – | < 50 | CCOc1c(C(C)n2nc(C)c3c(N)ncnc32)cc(Cl)c(F)c1C1CNC(=O)C1 (single isomer, unassigned) [Example 32b, 4-{3-[1-(4-amino-3-methyl-1H-pyrazolo[3,4-d]pyrimidin-1-yl)ethyl]-5-chloro-2-ethoxy-6-fluorophenyl}pyrrolidin-2-one, reference compound]
3 | – | – | < 50 | CCOc1c(C(C)n2nc(C)c3c(N)ncnc32)cc(Cl)c(F)c1C1CNC(=O)C1 (single isomer, unassigned) [Example 32c, 4-{3-[1-(4-amino-3-methyl-1H-pyrazolo[3,4-d]pyrimidin-1-yl)ethyl]-5-chloro-2-ethoxy-6-fluorophenyl}pyrrolidin-2-one, reference compound]
4 | – | – | 50 to 200 | CCOc1c(C(C)n2nc(C)c3c(N)ncnc32)cc(Cl)c(F)c1C1CNC(=O)C1 (single isomer, unassigned) [Example 32d, 4-{3-[1-(4-amino-3-methyl-1H-pyrazolo[3,4-d]pyrimidin-1-yl)ethyl]-5-chloro-2-ethoxy-6-fluorophenyl}pyrrolidin-2-one, reference compound]
5 | – | – | < 50 | COc1c(C(C)n2nc(C)c3c(N)ncnc32)cc(Cl)c(C#N)c1C1CN(C[C@H](C)O)C1 (stereo partly drawn) [Example 29, 4-[1-(4-amino-3-methyl-1H-pyrazolo[3,4-d]pyrimidin-1-yl)ethyl]-6-chloro-2-{1-[(2S)-2-hydroxypropyl]azetidin-3-yl}-3-methoxybenzonitrile]
6 | – | – | < 50 | COc1c(C(C)n2nc(C)c3c(N)ncnc32)cc(Cl)c(C#N)c1C1CN(CCO)C1 (stereo not drawn) [Example 30, 4-[1-(4-amino-3-methyl-1H-pyrazolo[3,4-d]pyrimidin-1-yl)ethyl]-6-chloro-2-[1-(2-hydroxyethyl)azetidin-3-yl]-3-methoxybenzonitrile]

The next lines start with the molecule.

Row | SMILES | IC50 ([1]; 2 μM ATP, 20 μM PIP2) [nM] | IC50 [2] [nM] | IC50 ([1]; Table B, Assay C) [nM]
7 | CC(NC(=O)c1c(N)nn2cccnc12)c1cc(C2CC2)c2cncn2c1-c1ccccc1 (racemic) [Example 117, 2-Amino-N-[1-(8-cyclopropyl-5-phenylimidazo[1,5-a]pyridin-6-yl)ethyl]pyrazolo[1,5-a]pyrimidine-3-carboxamide trifluoroacetate salt] | < 2000 | < 500 | –
8 | CNC(=O)c1ccc(-c2c(C(C)NC(=O)c3c(N)nn4cccnc34)cc(Cl)c3cncn23)cn1 (racemic) [Example 132, 2-Amino-N-[1-{8-chloro-5-{6-[(methylamino)carbonyl]pyridin-3-yl}imidazo [1,5-a]pyridin-6-yl)ethyl]pyrazolo[1,5-a]pyrimidine-3-carboxamide trifluoroacetate salt] | < 500 | < 500 | –
9 | CC(NC(=O)c1c(N)nn2cccnc12)c1cc(Cl)c2c(C(F)(F)F)ncn2c1N1CCNS(=O)(=O)CC1 (racemic) [Example 159, 2-Amino-N-{1-[8-chloro-5-(1,1-dioxido-1,2,5-thiadiazepan-5-yl)-1-(trifluoromethyl)imidazo[1,5-a]pyridin-6-yl]ethyl}pyrazolo[1,5-a]pyrimidine-3-carboxamide trifluoroacetate salt] | < 2000 | < 500 | –
10 | CC(NC(=O)c1c(N)nn2cccnc12)c1cc(Cl)c2cncn2c1C1CCCCC1 (racemic) [Example 183, 2-Amino-N-[1-(8-chloro-5-cyclohexylimidazo[1,5-a]pyridin-6-yl)ethyl]pyrazolo[1,5-a]pyrimidine-3-carboxamide trifluoroacetate salt] | < 2000 | < 500 | –
11 | Cc1nnc2c(Cl)cc(C(C)NC(=O)c3c(N)nn4cccnc34)c(-c3ccccc3)n12 (racemic) [Example 184, 2-Amino-N-[1-(8-chloro-3-methyl-5-phenyl[1,2,4]triazolo[4,3-a]pyridin-6-yl)ethyl]pyrazolo[1,5-a]pyrimidine-3-carboxamide trifluoroacetate salt] | ≥ 2000 | < 500 | –
12 | CC(NC(=O)c1c(N)nn2cccnc12)c1cc(Cl)c2nncn2c1-c1ccccc1 (racemic) [Example 185, 2-Amino-N-[1-(8-chloro-5-phenyl[1,2,4]triazolo[4,3-a]pyridin-6-yl)ethyl]pyrazolo[1,5-a]pyrimidine-3-carboxamide trifluoroacetate salt] | ≥ 2000 | < 500 | –
13 | CCOc1c(C(C)NC(=O)c2c(N)nn3cccnc23)cc(Cl)c2cn[nH]c12 (single isomer, unassigned) [Example 3b, 2-amino-N-[1-(4-chloro-7-ethoxy-1H-indazol-6-yl)ethyl]pyrazolo[1,5-a]pyrimidine-3-carboxamide trifluoroacetate] | ≥ 2000 | > 2000 | –
14 | CCOc1c(C(C)NC(=O)c2c(N)nn3cccnc23)cc(Cl)c2cn(CCOC)nc12 (stereo not drawn) [Example 5a, 2-amino-N-(1-(4-chloro-7-ethoxy-2-(2-methoxyethyl)-2H-indazol-6-yl)ethyl)pyrazolo[1,5-a]pyrimidine-3-carboxamide trifluoroacetate] | < 2000 | < 2000 | –
15 | CCOc1c(C(C)NC(=O)c2c(N)nn3cccnc23)cc(Cl)c2cn(CCO)nc12 (stereo not drawn) [Example 6a, 2-amino-N-(1-(4-chloro-7-ethoxy-2-(2-hydroxyethyl)-2H-indazol-6-yl)ethyl)pyrazolo[1,5-a]pyrimidine-3-carboxamide trifluoroacetate] | < 2000 | < 2000 | –
16 | CCOc1c(C(C)NC(=O)c2c(N)nn3cccnc23)cc(Cl)c2cn(CC#N)nc12 (stereo not drawn) [Example 7a, 2-amino-N-(1-(4-chloro-2-(cyanomethyl)-7-ethoxy-2H-indazol-6-yl)ethyl)pyrazolo[1,5-a]pyrimidine-3-carboxamide trifluoroacetate] | ≥ 2000 | > 2000 | –
17 | CCOc1c(C(C)NC(=O)c2c(N)nn3cccnc23)cc(Cl)c2cn(Cc3ccccc3)nc12 (stereo not drawn) [Example 8a, 2-amino-N-(1-(2-benzyl-4-chloro-7-ethoxy-2H-indazol-6-yl)ethyl)pyrazolo[1,5-a]pyrimidine-3-carboxamide trifluoroacetate] | ≥ 2000 | < 2000 | –
18 | CCOc1c(C(C)NC(=O)c2c(N)nn3cccnc23)cc(Cl)c2cn(CC(C)C)nc12 (stereo not drawn) [Example 9a, 2-amino-N-(1-(4-chloro-7-ethoxy-2-isobutyl-2H-indazol-6-yl)ethyl)pyrazolo[1,5-a]pyrimidine-3-carboxamide trifluoroacetate] | ≥ 2000 | < 2000 | –
19 | CCOc1c(C(C)NC(=O)c2c(N)nn3cccnc23)cc(Cl)c2cn(C3CCC3)nc12 (stereo not drawn) [Example 10a, 2-amino-N-(1-(4-chloro-2-cyclobutyl-7-ethoxy-2H-indazol-6-yl)ethyl)pyrazolo[1,5-a]pyrimidine-3-carboxamide trifluoroacetate] | ≥ 2000 | < 2000 | –
20 | CCOc1c(C(C)n2nc(C)c3c(N)ncnc32)cc(C)c(C#N)c1-c1ccc(C(=O)N(C)C)nc1 (stereo not drawn) [Example 31, 5-{3-[1-(4-amino-3-methyl-1H-pyrazolo[3,4-d]pyrimidin-1-yl)ethyl]-6-cyano-2-ethoxy-5-methylphenyl}-N,N-dimethylpyridine-2-carboxamide, reference compound] | – | – | < 50
